# Results taken from patent US12268667B2, “JAK1 pathway inhibitors for the treatment of prurigo nodularis” (Incyte Corporation, priority 2021, dated 2025).
# How the values were obtained:
# [1] = target: human JAK2 (a.a. 828-1132) (Homo sapiens (Human), UniProt O60674); assay: In vitro JAK kinase assay (HTRF), JAK2; format: biochemical; details: JAK2/JAK1 IC50 ratio at 1 mM ATP
# Description: (§1) The catalytic activity of JAK1, JAK2 or JAK3 are assayed by measuring the phosphorylation of a biotinylated peptide. The phosphorylated peptide was detected by homogenous time resolved fluorescence (HTRF). […] Reactions are carried out at room temperature for 1 hour and then stopped with 20 μL 45 mM EDTA, 300 nM SA-APC, 6 nM Eu-Py20 in assay buffer (Perkin Elmer, Boston, MA). Binding to the Europium labeled antibody takes place for 40 minutes and HTRF signal was measured on a Fusion plate reader (Perkin Elmer, Boston, MA).
# [2] = target: human JAK1 (a.a. 837-1142) (Homo sapiens, UniProt P23458); assay: In vitro JAK kinase assay (HTRF), JAK1; format: biochemical; details: 1 mM ATP
# Description: as §1
# Chain of human JAK2 (a.a. 828-1132) (O60674 828-1132): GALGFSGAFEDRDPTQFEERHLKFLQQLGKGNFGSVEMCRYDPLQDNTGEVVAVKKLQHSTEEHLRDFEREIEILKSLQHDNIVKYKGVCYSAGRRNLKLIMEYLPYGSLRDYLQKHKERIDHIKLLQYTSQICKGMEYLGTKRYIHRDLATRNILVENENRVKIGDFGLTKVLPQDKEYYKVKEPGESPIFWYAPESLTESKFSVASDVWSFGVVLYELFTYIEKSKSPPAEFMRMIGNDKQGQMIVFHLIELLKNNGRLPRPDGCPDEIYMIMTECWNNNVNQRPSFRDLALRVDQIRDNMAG
Compound,JAK2/JAK1 [1],IC50 [2]
"N#CCC(C1CCN(c2cccc(Cl)n2)C1)n1cc(-c2ncnc3[nH]ccc23)cn1 (single isomer, unassigned) [Compound 6, 3-[1-(6-chloropyridin-2-yl)pyrrolidin-3-yl]-3-[4-(7H-pyrrolo[2,3-d]pyrimidin-4-yl)-1H-pyrazol-1-yl]propanenitrile]",>10,< 10 nM
"N#CCC1(n2cc(-c3ncnc4[nH]ccc34)cn2)CN(C2CCN(C(=O)Nc3ccc(F)cc3C(F)(F)F)CC2)C1 [Compound 2, 4-{3-(Cyanomethyl)-3-[4-(7H-pyrrolo[2,3-d]pyrimidin-4-yl)-1H-pyrazol-1-yl]azetidin-1-yl}-N-[4-fluoro-2-(trifluoromethyl)phenyl] piperidine-1-carboxamide]",>10,< 10 nM
"N#CCC1(n2cc(-c3ncnc4[nH]ccc34)cn2)CN(C2CCN(C(=O)c3ccnc(C(F)(F)F)n3)CC2)C1 [Compound 3, [3-[4-(7H-pyrrolo[2,3-d]pyrimidin-4-yl)-1H-pyrazol-1-yl]-1-(1-{[2-(trifluoromethyl)pyrimidin-4-yl]carbonyl}piperidin-4-yl)azetidin-3-yl]acetonitrile]",>10,< 10 nM
"N#CCC1(n2cc(-c3ncnc4[nH]ccc34)cn2)CN(C2CCN(C(=O)c3ccnc(C(F)(F)F)c3F)CC2)C1 [Compound 4, {1-{1-[3-Fluoro-2-(trifluoromethyl)isonicotinoyl]piperidin-4-yl}-3-[4-(7H-pyrrolo[2,3-d]pyrimidin-4-yl)-1H-pyrazol-1-yl]azetidin-3-yl}acetonitrile]",>10,< 10 nM
"C[C@@H](O)c1nc2cnc3ccsc3c2n1[C@H]1CC[C@H](CC#N)OC1 [Compound 5, ((2R,5S)-5-{2-[(1R)-1-hydroxyethyl]-1H-imidazo[4,5-d]thieno[3,2-b]pyridin-1-yl}tetrahydro-2H-pyran-2-yl)acetonitrile]",>10,< 100 nM
"N#CCC(C1CCN(c2nc3cccnc3o2)C1)n1cc(-c2ncnc3[nH]ccc23)cn1 (centres unmarked) [Compound 7, 3-(1-[1,3]oxazolo[5,4-b]pyridin-2-ylpyrrolidin-3-yl)-3-[4-(7H-pyrrolo[2,3-d]pyrimidin-4-yl)-1H-pyrazol-1-yl]propanenitrile]",>10,< 10 nM
"N#CCC(CN1CCN(C(=O)c2ccc(C#N)cc2F)CC1)n1cc(-c2ncnc3[nH]ccc23)cn1 (centres unmarked) [Compound 8, 4-[(4-{3-cyano-2-[4-(7H-pyrrolo[2,3-d]pyrimidin-4-yl)-1H-pyrazol-1-yl]propyl}piperazin-1-yl)carbonyl]-3-fluorobenzonitrile]",>10,< 10 nM
"N#CCC(CN1CCN(C(=O)c2ccc(C#N)cc2F)CC1)n1ccc(-c2ncnc3[nH]ccc23)c1 (centres unmarked) [Compound 9, 4-[(4-{3-cyano-2-[3-(7H-pyrrolo[2,3-d]pyrimidin-4-yl)-1H-pyrrol-1-yl]propyl}piperazin-1-yl)carbonyl]-3-fluorobenzonitrile]",>10,< 10 nM
"N#CC[C@]1(n2cc(-c3ncnc4[nH]ccc34)cn2)C[C@H](N2CCN(C(=O)c3ccnc(C(F)(F)F)n3)CC2)C1 [Compound 10, [trans-1-[4-(7H-pyrrolo[2,3-d]pyrimidin-4-yl)-1H-pyrazol-1-yl]-3-(4-{[2-(trifluoromethyl)pyrimidin-4-yl]carbonyl}piperazin-1-yl)cyclobutyl]acetonitrile]",>10,< 10 nM
"N#CC[C@]1(n2cc(-c3ncnc4[nH]ccc34)cn2)C[C@H](N2CCC(Oc3cc(CN4CC(O)C4)cc(C(F)(F)F)n3)CC2)C1 [Compound 11, {trans-3-(4-{[4-[(3-hydroxyazetidin-1-yl)methyl]-6-(trifluoromethyl)pyridin-2-yl]oxy}piperidin-1-yl)-1-[4-(7H-pyrrolo[2,3-d]pyrimidin-4-yl)-1H-pyrazol-1-yl]cyclobutyl}acetonitrile]",>10,< 10 nM
"N#CC[C@]1(n2cc(-c3ncnc4[nH]ccc34)cn2)C[C@H](N2CCC(Oc3cc(CN4CCC[C@H]4CO)cc(C(F)(F)F)n3)CC2)C1 [Compound 12, {trans-3-(4-{[4-{[(2S)-2-(hydroxymethyl)pyrrolidin-1-yl]methyl}-6-(trifluoromethyl)pyridin-2-yl]oxy}piperidin-1-yl)-1-[4-(7H-pyrrolo[2,3-d]pyrimidin-4-yl)-1H-pyrazol-1-yl]cyclobutyl}acetonitrile]",>10,< 10 nM
"N#CC[C@]1(n2cc(-c3ncnc4[nH]ccc34)cn2)C[C@H](N2CCC(Oc3cc(CN4CCC[C@@H]4CO)cc(C(F)(F)F)n3)CC2)C1 [Compound 13, {trans-3-(4-{[4-{[(2R)-2-(hydroxymethyl)pyrrolidin-1-yl]methyl}-6-(trifluoromethyl)pyridin-2-yl]oxy}piperidin-1-yl)-1-[4-(7H-pyrrolo[2,3-d]pyrimidin-4-yl)-1H-pyrazol-1-yl]cyclobutyl}acetonitrile]",>10,< 10 nM
"C[C@H](NC(=O)c1cc(F)c(N2CC(CC#N)(n3cc(-c4ncnc5[nH]ccc45)cn3)C2)cc1F)C(F)(F)F [Compound 16, 4-{3-(cyanomethyl)-3-[4-(7H-pyrrolo[2,3-d]pyrimidin-4-yl)-1H-pyrazol-1-yl]azetidin-1-yl}-2,5-difluoro-N-[(1S)-2,2,2-trifluoro-1-methylethyl]benzamide]",>10,< 10 nM
"N#CCC1(n2cc(-c3ncnc4[nH]ccc34)cn2)CN([C@H]2CC[C@@H](Oc3cc(CCO)nc(C(F)(F)F)n3)CC2)C1 [Compound 18, {1-(cis-4-{[6-(2-hydroxyethyl)-2-(trifluoromethyl)pyrimidin-4-yl]oxy}cyclohexyl)-3-[4-(7H-pyrrolo[2,3-d]pyrimidin-4-yl)-1H-pyrazol-1-yl]azetidin-3-yl}acetonitrile]",>10,< 10 nM
"CCNCc1cc(O[C@H]2CC[C@@H](N3CC(CC#N)(n4cc(-c5ncnc6[nH]ccc56)cn4)C3)CC2)nc(C(F)(F)F)c1 [Compound 19, {1-(cis-4-{[4-[(ethylamino)methyl]-6-(trifluoromethyl)pyridin-2-yl]oxy}cyclohexyl)-3-[4-(7H-pyrrolo[2,3-d]pyrimidin-4-yl)-1H-pyrazol-1-yl]azetidin-3-yl}acetonitrile]",>10,< 10 nM
"CC(C)(O)c1cc(O[C@H]2CC[C@@H](N3CC(CC#N)(n4cc(-c5ncnc6[nH]ccc56)cn4)C3)CC2)nc(C(F)(F)F)c1 [Compound 20, {1-(cis-4-{[4-(1-hydroxy-1-methylethyl)-6-(trifluoromethyl)pyridin-2-yl]oxy}cyclohexyl)-3-[4-(7H-pyrrolo[2,3-d]pyrimidin-4-yl)-1H-pyrazol-1-yl]azetidin-3-yl}acetonitrile]",>10,< 10 nM
"N#CCC1(n2cc(-c3ncnc4[nH]ccc34)cn2)CN([C@H]2CC[C@@H](Oc3cc(CN4CC[C@@H](O)C4)cc(C(F)(F)F)n3)CC2)C1 [Compound 21, {1-(cis-4-{[4-{[(3R)-3-hydroxypyrrolidin-1-yl]methyl}-6-(trifluoromethyl)pyridin-2-yl]oxy}cyclohexyl)-3-[4-(7H-pyrrolo[2,3-d]pyrimidin-4-yl)-1H-pyrazol-1-yl]azetidin-3-yl}acetonitrile]",>10,< 10 nM
"N#CCC1(n2cc(-c3ncnc4[nH]ccc34)cn2)CN([C@H]2CC[C@@H](Oc3cc(CN4CC[C@H](O)C4)cc(C(F)(F)F)n3)CC2)C1 [Compound 22, {1-(cis-4-{[4-{[(3S)-3-hydroxypyrrolidin-1-yl]methyl}-6-(trifluoromethyl)pyridin-2-yl]oxy}cyclohexyl)-3-[4-(7H-pyrrolo[2,3-d]pyrimidin-4-yl)-1H-pyrazol-1-yl]azetidin-3-yl}acetonitrile]",>10,< 10 nM
"C[C@@H](CO)NCc1cc(OC2CCN([C@H]3C[C@](CC#N)(n4cc(-c5ncnc6[nH]ccc56)cn4)C3)CC2)nc(C(F)(F)F)c1 [Compound 23, {trans-3-(4-{[4-({[(1S)-2-hydroxy-1-methylethyl]amino}methyl)-6-(trifluoromethyl)pyridin-2-yl]oxy}piperidin-1-yl)-1-[4-(7H-pyrrolo[2,3-d]pyrimidin-4-yl)-1H-pyrazol-1-yl]cyclobutyl}acetonitrile]",>10,< 10 nM
"C[C@@H](O)CNCc1cc(OC2CCN([C@H]3C[C@](CC#N)(n4cc(-c5ncnc6[nH]ccc56)cn4)C3)CC2)nc(C(F)(F)F)c1 [Compound 24, {trans-3-(4-{[4-({[(2R)-2-hydroxypropyl]amino}methyl)-6-(trifluoromethyl)pyridin-2-yl]oxy}piperidin-1-yl)-1-[4-(7H-pyrrolo[2,3-d]pyrimidin-4-yl)-1H-pyrazol-1-yl]cyclobutyl}acetonitrile]",>10,< 10 nM
"C[C@H](O)CNCc1cc(OC2CCN([C@H]3C[C@](CC#N)(n4cc(-c5ncnc6[nH]ccc56)cn4)C3)CC2)nc(C(F)(F)F)c1 [Compound 25, {trans-3-(4-{[4-({[(2S)-2-hydroxypropyl]amino}methyl)-6-(trifluoromethyl)pyridin-2-yl]oxy}piperidin-1-yl)-1-[4-(7H-pyrrolo[2,3-d]pyrimidin-4-yl)-1H-pyrazol-1-yl]cyclobutyl}acetonitrile]",>10,< 10 nM
"N#CC[C@]1(n2cc(-c3ncnc4[nH]ccc34)cn2)C[C@H](N2CCC(Oc3cc(CCO)cc(C(F)(F)F)n3)CC2)C1 [Compound 26, {trans-3-(4-{[4-(2-hydroxyethyl)-6-(trifluoromethyl)pyridin-2-yl]oxy}piperidin-1-yl)-1-[4-(7H-pyrrolo[2,3-d]pyrimidin-4-yl)-1H-pyrazol-1-yl]cyclobutyl}acetonitrile]",>10,< 10 nM
